Source: patent US20080118589A1, “Pharmaceutical formulations of rhodiola crenulata and methods of use thereof” (priority 2005, published 2008)

Legend:
[1] = biological target: T1, telomerase activity in MDA-MB-231 breast cancer cells (Homo sapiens, UniProt O14746); experiment: Telomerase activity (qPCR); assay type: cell-based; conditions: Rhodiola crenulata 100 μg/mL, tamoxifen 10 μM
T1 construct: telomerase activity in human MDA-MB-231 breast cancer cells; endogenous in cells; host or cells: MDA-MB-231
Description: FIGS. 16 and 17 show the effect of Rhodiola crenulata (100 μg/mL) and tamoxifen (10 μM) on telomerase activity in human MDA-MB-231 breast cancer cells at 24 hr and 72 hr, respectively.
The breast cancer cell lines MDA-MB-231, V14, 76N tert (an immortalized epithelial breast cancer cell line), and 76N p53 239 (immortalized by presence of a dominant negative p53 gene) were treated as indicated above for 24 hours at 100 μg/mL Rhodiola crenulata.

MDA-MB-231 Cells [2] = experiment: Death time course with Tamoxifen, Rhodiola, or both; assay type: cell-based, human
Description: FIG. 8 is a graph showing a Death Time Course of MDA-MB-231 Cells treated with Tamoxifen, Rhodiola, or Tamoxifen plus Rhodiola.
FIG. 8 is similar to FIG. 7, but this experiment involved a time course of MDA-MB-231 Cells treated with Tamoxifen or Rhodiola alone, or Tamoxifen and Rhodiola together.

MDA-MB-231 Cells [3] = experiment: MTS assay, growth arrest by retinoids +/-Rhodiola; assay type: cell-based, human; conditions: for chemosensitivity (MTS assay): retinoid with Rhodiola, data not shown
Description: Rhodiola crenulata extracts were administered to MDA-MB-231 cells in the presence or absence of either 1 μM or 10 μM all trans retinoic acid (ATRA), and cell viability/cytotoxicity was monitored using the MTS assay, as described above, and monitored for absorbance at 490 nm as indicative of chemosensitivity/resistance to the ATRA administered.

T1 sequence (O14746 whole entry): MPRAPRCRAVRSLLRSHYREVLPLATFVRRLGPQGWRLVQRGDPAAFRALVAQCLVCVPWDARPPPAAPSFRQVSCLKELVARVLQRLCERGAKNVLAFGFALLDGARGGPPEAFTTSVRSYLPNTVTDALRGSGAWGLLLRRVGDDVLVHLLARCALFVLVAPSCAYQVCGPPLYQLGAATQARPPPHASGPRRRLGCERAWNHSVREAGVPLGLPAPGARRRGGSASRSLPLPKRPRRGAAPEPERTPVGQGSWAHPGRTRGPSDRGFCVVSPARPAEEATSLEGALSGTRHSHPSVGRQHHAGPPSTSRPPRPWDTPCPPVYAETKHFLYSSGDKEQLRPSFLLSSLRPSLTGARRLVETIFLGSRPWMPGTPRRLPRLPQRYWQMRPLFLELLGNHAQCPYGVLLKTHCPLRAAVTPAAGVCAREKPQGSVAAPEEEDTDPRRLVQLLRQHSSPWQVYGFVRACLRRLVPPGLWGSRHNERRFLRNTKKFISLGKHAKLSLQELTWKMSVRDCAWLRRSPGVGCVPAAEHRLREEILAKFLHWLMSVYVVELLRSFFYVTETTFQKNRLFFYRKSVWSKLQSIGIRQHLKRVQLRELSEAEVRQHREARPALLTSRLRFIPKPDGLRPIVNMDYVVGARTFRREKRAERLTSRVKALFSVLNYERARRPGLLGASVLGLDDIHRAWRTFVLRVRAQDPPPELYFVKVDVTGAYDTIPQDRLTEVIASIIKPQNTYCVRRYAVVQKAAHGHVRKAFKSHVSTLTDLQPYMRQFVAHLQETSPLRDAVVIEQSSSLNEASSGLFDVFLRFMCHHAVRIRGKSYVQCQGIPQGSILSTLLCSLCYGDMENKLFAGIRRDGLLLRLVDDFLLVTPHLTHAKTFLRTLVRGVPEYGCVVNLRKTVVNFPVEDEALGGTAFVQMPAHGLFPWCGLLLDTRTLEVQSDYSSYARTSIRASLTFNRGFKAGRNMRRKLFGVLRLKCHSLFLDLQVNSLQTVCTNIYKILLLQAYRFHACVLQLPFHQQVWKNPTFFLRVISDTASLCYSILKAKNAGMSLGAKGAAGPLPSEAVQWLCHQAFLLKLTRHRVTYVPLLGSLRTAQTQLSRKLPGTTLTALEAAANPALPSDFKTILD

Structure (SMILES): CC/C(=C(\c1ccccc1)c1ccc(OCCN(C)C)cc1)c1ccccc1 [Tamoxifen, tamoxifen]
- telomerase activity ([1]; 24 hr): inhibited telomerase activity
- telomerase activity ([1]; 72 hr): telomerase activity is starting to return
- percentage of cell death (MDA-MB-231 Cells [2]; 24 hours): increased the percentage of cell death
- percentage of cell death (MDA-MB-231 Cells [2]; 48 hours): increased the percentage of cell death

Structure (SMILES): CC1=C(/C=C/C(C)=C\C=C\C(C)=C\C(=O)O)C(C)(C)CCC1 [9-cis retinoic acid]
- chemosensitivity (MTS assay) (MDA-MB-231 Cells [3]): Comparable effects

Structure (SMILES): CC1=C(/C=C/C(C)=C/C=C/C(C)=C/C(=O)Nc2ccc(O)cc2)C(C)(C)CCC1 [HPR, N-(4-hydroxyphenyl) retinamide]
- chemosensitivity (MTS assay) (MDA-MB-231 Cells [3]): Comparable effects

Structure (SMILES): CC1=C(/C=C/C(C)=C/C=C/C(C)=C/C(=O)O)C(C)(C)CCC1 [ATRA, all trans retinoic acid]
- chemosensitivity (MTS assay, absorbance at 490 nm) (MDA-MB-231 Cells [3]; 1 μM or 10 μM ATRA, absence of Rhodiola crenulata): little difference in chemosensitivity
